Experimental data taken from PubChem BioAssay AID2060511 (Molecular Pharmacology Branch, DTP, NCI, 2025).

Tested on: 422866-222-R5-J1-PDC spheroids with HUVEC/MSC, viability
Experiment: Anticancer human tumor 422866-222-R5-J1-PDC patient-derived pancreatic adenocarcinoma cell line growth inhibition [GQUAD]
Details: for IC50: curve of first compound; for viability, T/C: stronger effect = lower value
From the text: DNA G-quadruplex Stabilizer Agents in Combinations in Complex Spheroids
A high-throughput screen of multi-cell type tumor spheroids was designed to identify active combinations of DNA G-quadruplex stabilizer agents and targeted small molecules. Complex spheroids include a stromal component modeled by human endothelial cells (HUVEC) and fibroblasts modeled by human mesenchymal stem cells (MSCs). The concentration ranges selected for each drug and investigational agent were based upon clinically achievable concentrations if the clinical Cmax of the agent was known.
Compounds. The drugs and investigational agents: pidnarulex (CX-5461; NSC782164), APTO-253 (NSC789042), BRACO-19 (NSC847499), peposertib (NSC802822), ceralasertib (NSC780249), elimusertib (NSC800525), camonsertib (NSC841442), AZD-1390 (NSC803789), olaparib (NSC753686), talazoparib (NSC767125), ART-558 (NSC835418), sotorasib (NSC818433), MRTX-1133 (NSC836407), SN-38 (NSC673596), topotecan (NSC609699), etoposide (NSC141540), doxorubicin (NSC123127), gemcitabine (NSC613327), 5-fluorouracil (NSC19893), paclitaxel (NSC125973), vemurafenib (NSC761431), panobinostat (NSC761190), R-306465 (JNJ-16241199; NSC773264), adavosertib (NSC754352), TP-3654 (NSC805149), carboplatin (NSC241240), KSQ-4279 (NSC840948), and staurosporine (NSC755774) were obtained from the National Cancer Institute (NCI) Developmental Therapeutics Program Chemical Repository (34). The FDA-approved anticancer drug set is available from the NCI Developmental Therapeutics Program. […] The stock solutions were prepared in dimethyl sulfoxide (DMSO, Sigma-Aldrich, St. Louis, MO, cat. D2650) at 800-fold the tested concentration and stored at -70 degrees C prior to their use. All drugs and investigational agents were tested over a range starting from a high concentration at or near the clinical Cmax and decreasing in half-log increments. If the clinical Cmax for an agent had not been determined, the highest concentration tested was 10 microM.
2.3 Cell Culture. All cells were maintained in an incubator at 37 degrees C and 5% CO2 with 95% humidity. The PDC lines were cultured according to standard operating procedures established by the NCI PDMR. All PDCs were thawed and cultured in Matrigel-coated flasks prepared with a working solution of 1X Ham's F-12 nutrient mix, without supplementation (Invitrogen, cat. 11765054), 100 U/mL penicillin-streptomycin (Invitrogen, cat. 15140122), and 2.5% Matrigel (Corning Inc., cat. 354248) for the first three passages. The 857933-349-R-J2-PDC line was cultured in 6C/Colon 1B media, which includes advanced DMEM/F-12 (Thermo Fisher Scientific, cat. 12634028), 10 mM HEPES (Thermo Fisher Scientific, cat. 15630080), 1X GlutaMAX supplement (Thermo Fisher Scientific, cat. 35050061), 0.1 mg/mL primocin (InvivoGen, cat. ant-pm-2), 10% defined fetal bovine serum, heat inactivated (HyClone Laboratories Inc., cat. SH30070.03HI), 50% L-WRN conditioned media (ATCC, cat. CRL-3276), 1.25 mM N-Acetyl-L-cysteine (Sigma-Aldrich, cat. A9165), 10 mM nicotinamide (Sigma-Aldrich, cat. N0636), 1X B-27 supplement (Thermo Fisher Scientific, cat. 17504044), 1X N-2 supplement (Thermo Fisher Scientific, cat. 17502048), 10 microM Y-27632 dihydrochloride (Tocris Bioscience, cat. 1254), and 50 ng/mL human EGF recombinant protein (Thermo Fisher Scientific, cat. PHG0311). The 485176-168-R4-J1-PDC line was cultured in Panc media, which includes all 6C/Colon 1B media components plus 100 ng/mL human FGF-10 (Thermo Fisher Scientific, cat. 100-26), 500 nM SB-431542 (Selleckchem, cat. S1067), and gastrin (Tocris, cat. 3006).
[…]

[1] = second compound 0.0316 µM, first compound 0.0316 µM
[2] = second compound 0.0316 µM, first compound 0.1 µM
[3] = second compound 0.0316 µM, first compound 0.316 µM
[4] = second compound 0.0316 µM, first compound 1 µM
[5] = second compound 0.0316 µM, first compound 3.16 µM
[6] = second compound 0.0316 µM, first compound 10 µM
[7] = second compound 0.1 µM, first compound 0.0316 µM
[8] = second compound 0.1 µM, first compound 0.1 µM
[9] = second compound 0.1 µM, first compound 0.316 µM
[10] = second compound 0.1 µM, first compound 1 µM
[11] = second compound 0.1 µM, first compound 3.16 µM
[12] = second compound 0.1 µM, first compound 10 µM
[13] = second compound 0.316 µM, first compound 0.0316 µM
[14] = second compound 0.316 µM, first compound 0.1 µM
[15] = second compound 0.316 µM, first compound 0.316 µM
[16] = second compound 0.316 µM, first compound 1 µM
[17] = second compound 0.316 µM, first compound 3.16 µM
[18] = second compound 0.316 µM, first compound 10 µM
[19] = second compound 1 µM, first compound 0.0316 µM
[20] = second compound 1 µM, first compound 0.1 µM
[21] = second compound 1 µM, first compound 0.316 µM
[22] = second compound 1 µM, first compound 1 µM
[23] = second compound 1 µM, first compound 3.16 µM
[24] = second compound 1 µM, first compound 10 µM
[25] = second compound 3.16 µM, first compound 0.0316 µM
[26] = second compound 3.16 µM, first compound 0.1 µM
[27] = second compound 3.16 µM, first compound 0.316 µM
[28] = second compound 3.16 µM, first compound 1 µM
[29] = second compound 3.16 µM, first compound 3.16 µM
[30] = second compound 3.16 µM, first compound 10 µM
[31] = second compound 10 µM, first compound 0.0316 µM
[32] = second compound 10 µM, first compound 0.1 µM
[33] = second compound 10 µM, first compound 0.316 µM
[34] = second compound 10 µM, first compound 1 µM
[35] = second compound 10 µM, first compound 3.16 µM
[36] = second compound 10 µM, first compound 10 µM
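Further: spheroids exposed to compounds for seven days before reading.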
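Wherever viability, T/C is given: percent viability relative to DMSO vehicle control taken as 100%.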

## CC1COCCN1c1cc(-c2ccnn2C)c2ccnc(-c3ccn[nH]3)c2n1 (centres undefined) + CN(C)c1ccc(Nc2c3ccc(NC(=O)CCN4CCCC4)cc3nc3cc(NC(=O)CCN4CCCC4)ccc23)cc1
Second compound 0.0316 µM
  IC50: > 10000 nM
Second compound 0.1 µM
  IC50: > 10000 nM
Second compound 0.316 µM
  IC50: > 10000 nM
Second compound 1 µM
  IC50: 31.6 nM
Second compound 3.16 µM
  IC50: 31.6 nM
Second compound 10 µM
  IC50: 31.6 nM
[1]
  viability, T/C: 88.7%
[2]
  viability, T/C: 60.3%
[3]
  viability, T/C: 53.2%
[4]
  viability, T/C: 46.5%
[5]
  viability, T/C: 73.2%
[6]
  viability, T/C: 92.6%
[7]
  viability, T/C: 92.4%
[8]
  viability, T/C: 62.7%
[9]
  viability, T/C: 46.2%
[10]
  viability, T/C: 36.2%
[11]
  viability, T/C: 86.8%
[12]
  viability, T/C: 84.2%
[13]
  viability, T/C: 86.8%
[14]
  viability, T/C: 70.2%
[15]
  viability, T/C: 46.7%
[16]
  viability, T/C: 39.4%
[17]
  viability, T/C: 86.9%
[18]
  viability, T/C: 89.3%
[19]
  viability, T/C: 73%
[20]
  viability, T/C: 52%
[21]
  viability, T/C: 37.2%
[22]
  viability, T/C: 39.2%
[23]
  viability, T/C: 91.2%
[24]
  viability, T/C: 71.5%
[25]
  viability, T/C: 79%
[26]
  viability, T/C: 54.8%
[27]
  viability, T/C: 38%
[28]
  viability, T/C: 39.7%
[29]
  viability, T/C: 81.2%
[30]
  viability, T/C: 94.6%
[31]
  viability, T/C: 76.8%
[32]
  viability, T/C: 52.7%
[33]
  viability, T/C: 40.2%
[34]
  viability, T/C: 41.4%
[35]
  viability, T/C: 83.9%
[36]
  viability, T/C: 83.8%

## CC1COCCN1c1cc(C2(O)CC3CCC(C2)O3)c2cnn(-c3ccn[nH]3)c2n1 (centres undefined) + CN(C)c1ccc(Nc2c3ccc(NC(=O)CCN4CCCC4)cc3nc3cc(NC(=O)CCN4CCCC4)ccc23)cc1
Second compound 0.0316 µM
  IC50: > 10000 nM
Second compound 0.1 µM
  IC50: 31.6 nM
Second compound 0.316 µM
  IC50: > 10000 nM
Second compound 1 µM
  IC50: 31.6 nM
Second compound 3.16 µM
  IC50: > 10000 nM
Second compound 10 µM
  IC50: 31.6 nM
[1]
  viability, T/C: 65.6%
[2]
  viability, T/C: 52.2%
[3]
  viability, T/C: 55.3%
[4]
  viability, T/C: 90%
[5]
  viability, T/C: 87.1%
[6]
  viability, T/C: 92.5%
[7]
  viability, T/C: 79.8%
[8]
  viability, T/C: 49.7%
[9]
  viability, T/C: 45.7%
[10]
  viability, T/C: 108%
[11]
  viability, T/C: 91.4%
[12]
  viability, T/C: 90.4%
[13]
  viability, T/C: 78.8%
[14]
  viability, T/C: 45.1%
[15]
  viability, T/C: 64.5%
[16]
  viability, T/C: 90%
[17]
  viability, T/C: 94.1%
[18]
  viability, T/C: 88.4%
[19]
  viability, T/C: 61.9%
[20]
  viability, T/C: 49.6%
[21]
  viability, T/C: 39.4%
[22]
  viability, T/C: 88%
[23]
  viability, T/C: 89.1%
[24]
  viability, T/C: 83.8%
[25]
  viability, T/C: 57.4%
[26]
  viability, T/C: 51.8%
[27]
  viability, T/C: 50.2%
[28]
  viability, T/C: 87.3%
[29]
  viability, T/C: 95.5%
[30]
  viability, T/C: 83.9%
[31]
  viability, T/C: 59.8%
[32]
  viability, T/C: 47.3%
[33]
  viability, T/C: 43.1%
[34]
  viability, T/C: 93.1%
[35]
  viability, T/C: 88.3%
[36]
  viability, T/C: 88.5%
